Measurements published in PMC8780978, “Antiplatelet and Antithrombotic Effects of Isaridin E Isolated from the Marine-Derived Fungus via Downregulating the PI3K/Akt Signaling Pathway” (Marine Drugs, 2021).
Blank lines part the entries; values can stand above or below the molecule they belong to. Where a SMILES comes first, the peptide text is derived from it. [ ]: non-standard residue; d: D form. ξ: configuration not given here. ξLac(3-iPr) = CC(C)CC(O)C(=O)O; NMeV = CN[C@H](C(=O)O)C(C)C; βAla = NCCC(=O)O

Legend:
washed mouse platelets [1] = test: LDH (lactate dehydrogenase) release cytotoxicity assay; type: cell-based; settings: for LDH Release (%): 37 °C, 30 min, n = 6
Description: We first examined whether isaridin E has cytotoxic effects on washed mouse circulating platelets using the LDH (lactate dehydrogenase) cytotoxicity assay kit. Destruction of the cell membrane caused by apoptosis or necrosis leads to the release of enzymes in the cytoplasm into the culture medium, including LDH, with stable enzyme activity. Therefore, the quantitative analysis of the percentage of LDH leakage from the platelets is commonly used to evaluate the cytotoxic effects of tested compounds, and LDH > 10% was considered cytotoxic. […] Next, we tested whether treatment with isaridin E for 3 h (a single intragastric administration at 100 mg/kg) affects hematological and coagulation parameters in vivo.
(§1) Washed platelets were prepared as previously described by Zhongren Ding et al.. Whole blood was collected from the abdominal aorta using a syringe containing 3.8% sodium citrate (9:1, V/V) as an anticoagulant. Citrated blood (2 mL) was centrifuged at room temperature at 300× g for 2 min to obtain platelet-rich plasma (PRP). Platelets were obtained by the further centrifugation of PRP at 700× g for 2 min, and resuspended in Tyrode’s buffer (138 mM of NaCl, 2.7 mM of KCl, 1 mM of MgCl2, 3 mM of NaH2PO4, 5 mM of glucose, 10 mM of HEPES, pH 7.4) with 0.02 U/mL apyrase (A6410, Sigma-Aldrich, St. Louis, MO, USA) to a density of 3 × 10^8 of platelets/mL for use.
The possible cytotoxic effect of isaridin E on mouse platelets was assessed with the LDH Cytotoxicity Assay Kit (C0016, Beyotime Biotechnology, Haimen, China). Washed mouse platelets were pretreated with vehicle or different concentrations of isaridin E ([…], 12.5, 25, 50, 100, 200, or 400 μM) at 37 °C for 30 min, and then collected for detection following the manufacturer’s instructions. The cytotoxic effects were determined using the percentage of LDH leakage released from the platelets (% LDH release).

[2] = Hematologic parameters after single intragastric dose; type: in vivo, mice; settings: 3 h
Description: (§2) Mice were intragastrically administrated with a single dose of isaridin E (100 mg/kg) or vehicle at 3 h before anesthesia. Whole blood was drawn from the abdominal aorta and collected in K2EDTA anticoagulant tubes to evaluate the hematologic parameters with an automatic hematology analyzer (BC-2800 vet, Mindray, Shenzhen, China). The citrated blood was centrifuged at 1500× g (25 °C) for 15 min to obtain the platelet-poor plasma (PPP). PPP was then used to measure the coagulation parameters, including ATPP, PT, TT, and FIB, with an automated coagulation analyzer (RAC-030, Rayto, Shenzhen, China).

[3] = Coagulation parameters (APTT, PT, TT, FIB) after single intragastric dose; type: in vivo, mice; settings: 3 h
Description: as §2

Tail-bleeding assay = settings: for tail bleeding time versus vehicle control: single intragastric dose 3 h before, n = 5 mice
Description: Mice were assigned randomly to […] and intragastrically administrated with a single dose of vehicle, isaridin E (12.5, 25, 50, or 100 mg/kg), or clopidogrel (10 mg/kg) at 3 h before the cutting-tail experiment. Tails were transected at a distal margin of 5 mm and were immediately immersed into 10 mL of saline at 37 °C. The bleeding time was recorded as when the observed bleeding ceased.

washed mouse platelets [4] = test: ADP-induced platelet aggregation (light transmission aggregometry); type: cell-based; settings: ADP 5 μM; for ADP-induced maximum platelet aggregation, % of vehicle control: 30 min pretreatment
Description: as §1
(§3) The platelet aggregation and release assay were performed as previously reported. Washed mouse platelets were treated with isaridin E (6.25, 12.5, 25, 50, 100, or 200 μM) or vehicle or clopidogrel (20 μM) at 37 °C for 30 min, followed by stimulation with ADP (01905, Sigma-Aldrich, St. Louis, MO, USA, 5 μM), collagen (C7661, Sigma-Aldrich, St. Louis, MO, USA, 1 μg/mL) or thrombin (T6884, Sigma-Aldrich, St. Louis, MO, USA, 0.02 U/mL). The platelet aggregation was assessed using a lumi-aggregometer (700-2, Chrono-Log, Havertown, PA, USA) with a stirring speed of 1200 rpm at 37 °C. The release of ATP was simultaneously monitored using Luciferin/luciferase reagent (395, Chrono-Log, Havertown, PA, USA). Aggregation traces and ATP release traces were monitored continuously for at least 10 min.

washed mouse platelets [5] = test: Thrombin-induced platelet aggregation; type: cell-based; settings: thrombin 0.02 U/mL, p > 0.05
Description: as §1
(§4) The platelet aggregation and release assay were performed as previously reported. […] The platelet aggregation was assessed using a lumi-aggregometer (700-2, Chrono-Log, Havertown, PA, USA) with a stirring speed of 1200 rpm at 37 °C. The release of ATP was simultaneously monitored using Luciferin/luciferase reagent (395, Chrono-Log, Havertown, PA, USA). Aggregation traces and ATP release traces were monitored continuously for at least 10 min.

washed mouse platelets [6] = test: Collagen-induced platelet aggregation; type: cell-based; settings: collagen 1 μg/mL, p > 0.05
Description: as §1, §4

washed mouse platelets [7] = test: ADP-induced platelet ATP release (luciferin/luciferase); type: cell-based; settings: ADP 5 μM
Description: as §1, §3

washed mouse platelets [8] = test: ADP-induced platelet activation, CD62p surface expression by flow cytometry; type: cell-based; settings: 30 min, then 50 μM ADP 5 min, vehicle 35.6 ± 1.7%
Description: as §1
Washed mouse platelets were pretreated with vehicle or different concentrations of isaridin E for 30 min at 37 °C, followed by stimulation with 50 μM ADP for 5 min. Platelets were then stained with FITC-conjugated anti-CD41 antibody (133904, Biolegend, San Diego, CA, USA) and PE-conjugated anti-CD62p antibody (148306, Biolegend, San Diego, CA, USA) for 20 min at 25 °C in the dark. Then, platelets were fixed in 1% paraformaldehyde solution and analyzed with a CytoFLEX flow cytometer (Beckman Coulter, Brea, CA, USA).

[9] = FeCl3-induced carotid artery thrombosis mouse model; type: in vivo, C57BL/6J mice
Description: The mouse model of carotid artery thrombosis induced by FeCl3 injury was performed and monitored by a stereoscopic fluorescence microscope as previously described. […] Mice were then anesthetized with a single dose of sodium pentobarbital (60 mg/kg, i.p., Sigma-Aldrich, St. Louis, MO, USA). Rhodamine 6G (83697, Sigma-Aldrich, St. Louis, MO, USA; 0.5 mg/mL) was injected into the right jugular vein to label platelets. The carotid artery (CA) was carefully exposed, and a black "U"-shaped plastic (3 mm) was inserted under the CA gently to block background fluorescence. Filter papers (1 × 2 mm) with 7.5% saturated FeCl3 solution were applied topically for 1 min, and thrombus formation in the injured CA was recorded in real time using a stereoscopic fluorescence microscope (M205FA, Leica, Wetzlar, Germany) for 12 min.

PI3K = test: ADP-induced phosphorylation of PI3K, Western blot; type: cell-based, human; settings: 50 μM, Meg-01 cells
Description: (§5) Western blotting was performed as described in our previous study. Meg-01 cells were lysed with protein lysis buffer (P0013, Beyotime Biotechnology, Haimen, China) containing a protease inhibitor cocktail (539131, Millipore, Billerica, MA, USA) and phosphatase inhibitor cocktail (K1012, APExBIO, Houston, TX, USA). The samples (20 μg) were then separated by 8% SDS-PAGE gel and transferred onto PVDF membranes. The PDVF membranes were incubated with primary antibodies at 4 °C for 12 h. After incubating with the appropriate HRP-conjugated secondary antibodies (7076, 7074, Cell Signaling Technology, Danvers, MA, USA), blots were detected with chemiluminescent HRP substrate (P90719, Millipore, Billerica, MA, USA) using the ChemiDoc XRS+ system (BIO-RAD, Hercules, CA, USA). Primary antibodies against the following antigens were listed: PI3K (4257, Cell Signaling Technology, Danvers, MA, USA), Phospho-PI3K (ab226842, Abcam, Cambridge, UK), Akt (4691, Cell Signaling Technology, Danvers, MA, USA), Phospho-Akt (4056, Cell Signaling Technology, Danvers, MA, USA), and β-actin (66009-1, Proteintech, Rosemont, IL, USA).

Akt = test: ADP-induced phosphorylation of Akt, Western blot; type: cell-based, human; settings: 50 μM, Meg-01 cells
Description: as §5

human neutrophils = tested on: human neutrophils; design: method as in PMID 23822585; settings: cited from earlier work
[10] = design: method as in PMID 21438588; settings: cited from earlier work
[11] = 100 mg/kg single gavage, n=5 mice
[12] = 100 mg/kg single intragastric administration
[13] = 100 mg/kg single oral gavage, n = 5 mice

Structure (SMILES): CC(C)CC1OC(=O)CCNC(=O)[C@H](C(C)C)N(C)C(=O)[C@H](C(C)C)N(C)C(=O)[C@H](Cc2ccccc2)NC(=O)[C@@H]2CCCN2C1=O (stereo partly drawn) [Isaridin E, cyclo-[(OH) (S)-HMPA^1-L-Pro^2-L-Phe^3-N-Me-L-Val^4-N-Me-L-Val^5-β-Ala^6(CO)]] (cyclo(F[NMeV][NMeV][βAla][ξLac(3-iPr)]P))
- cytotoxicity on washed platelets (washed mouse platelets [1]; 6.25-400 μM, LDH > 10% considered cytotoxic): no obvious cytotoxicity
- LDH Release (%) (washed mouse platelets [1]; isaridin E 6.25 μM): 0.86 ± 0.03%
- LDH Release (%) (washed mouse platelets [1]; isaridin E 12.5 μM): 0.89 ± 0.04%
- LDH Release (%) (washed mouse platelets [1]; isaridin E 25 μM): 0.88 ± 0.03%
- LDH Release (%) (washed mouse platelets [1]; isaridin E 50 μM): 0.86 ± 0.03%
- LDH Release (%) (washed mouse platelets [1]; isaridin E 100 μM): 0.88 ± 0.04%
- LDH Release (%) (washed mouse platelets [1]; isaridin E 200 μM): 0.84 ± 0.02%
- LDH Release (%) (washed mouse platelets [1]; isaridin E 400 μM): 0.85 ± 0.02%
- HCT (hematocrit) [2, 11]: 39.5 ± 1.4%
- LY % (lymphocyte percentage) [2, 11]: 83.1 ± 2.5%
- MCH (mean red blood cell hemoglobin) [2, 11]: 17.3 ± 0.4 pg
- MCHC (mean red blood cell hemoglobin concentration) [2, 11]: 330 ± 8 g/L
- MCV (mean red blood cell volume) [2, 11]: 51.1 ± 0.8 fL
- MO % (monocyte percentage) [2, 11]: 2.7 ± 0.6%
- MPV (mean platelet volume) [2, 11]: 5.3 ± 0.3 fL
- NE % (neutrophil percentage) [2, 11]: 14.8 ± 2.2%
- PLT (platelet count) [2, 11]: 1233 ± 65 10^9/L
- RBC (red blood cell) [2, 11]: 7.8 ± 0.3 10^12/L
- RDW (red cell distribution width) [2, 11]: 15.2 ± 0.5%
- WBC (white blood cell) [2, 11]: 3.3 ± 0.5 10^9/L
- hematological parameters versus NS- and vehicle-treated groups [2, 12]: no significant differences
- effect on general coagulation (APTT, TT, PT, FIB) [3, 12]: no obvious effects
- ATPP [3, 13]: 32.4 ± 1.0 s
- FIB (fibrinogen) [3, 13]: 3.1 ± 0.1 g/L
- PT (prothrombin time) [3, 13]: 12.1 ± 0.4 s
- TT (thrombin time) [3, 13]: 14.0 ± 0.8 s
- tail bleeding time versus vehicle control (Tail-bleeding assay; 12.5, 25, 50 or 100 mg/kg): no obvious effects
- bleeding time compared with clopidogrel (10 mg/kg) (Tail-bleeding assay; isaridin E 12.5-100 mg/kg): significantly reduced
- ADP-induced maximum platelet aggregation, % of vehicle control (washed mouse platelets [4]; 12.5 μM): 75.6 ± 2.6%
- ADP-induced maximum platelet aggregation, % of vehicle control (washed mouse platelets [4]; 25 μM): 55.7 ± 4.8%
- ADP-induced maximum platelet aggregation, % of vehicle control (washed mouse platelets [4]; 50 μM): 26.6 ± 3.5%
- reduction of ADP-induced platelet aggregation versus vehicle control (washed mouse platelets [4]; 50 μM, extent similar to clopidogrel (20 μM)): 73.4 ± 3.5%
- ADP-induced maximum platelet aggregation, % of vehicle control (washed mouse platelets [4]; 100 μM): 15.6 ± 2.9%
- ADP-induced maximum platelet aggregation, % of vehicle control (washed mouse platelets [4]; 200 μM): 8.1 ± 0.8%
- IC50 (washed mouse platelets [4]; Mus musculus, Platelet, read-out: IC50 inhibiting ADP-induced platelet aggregation): 26.1 ± 2.9 µM
- maximum platelet aggregation in response to thrombin (washed mouse platelets [5]): no significant differences
- maximum platelet aggregation in response to collagen (washed mouse platelets [6]): no significant differences
- ADP-induced platelet ATP release, % of vehicle control (washed mouse platelets [7]; 6.25 μM): 60.7 ± 7.9%
- ADP-induced platelet ATP release, % of vehicle control (washed mouse platelets [7]; 12.5 μM): 31.7 ± 4.8%
- IC50 (washed mouse platelets [7]; Mus musculus, Platelet, read-out: IC50 inhibiting ADP-induced platelet ATP release): 7.9 ± 1.1 µM
- percentage of CD62p expression on the platelet surface (washed mouse platelets [8]; 25 μM): 29.6 ± 1.0%
- percentage of CD62p expression on the platelet surface (washed mouse platelets [8]; 50 μM): 16.0 ± 1.4%
- percentage of CD62p expression on the platelet surface (washed mouse platelets [8]; 100 μM): 8.4 ± 1.0%
- maximum thrombus size ([9]; 12.5, 25, 50, or 100 mg/kg oral gavage at 1, 24, 48 h before FeCl3 injury, at 12 min, dose-dependent): reduced
- time to the first thrombus formation ([9]; 12.5, 25, 50, or 100 mg/kg oral gavage at 1, 24, 48 h before FeCl3 injury, dose-dependent): significantly prolonged
- antithrombotic effects relative to clopidogrel at 10 mg/kg ([9]; 50 or 100 mg/kg): comparable to that of clopidogrel
- ADP-induced phosphorylation of PI3K (PI3K; 30 min, ADP 5 μM 5 min): significantly suppressed
- total protein expression of PI3K (PI3K): without altering
- ADP-induced phosphorylation of Akt (Akt; 30 min, ADP 5 μM 5 min): significantly suppressed
- total protein expression of Akt (Akt): without altering
- cytotoxicity in human neutrophils (human neutrophils): without cytotoxicity
- elastase release induced by FMLP (human neutrophils; human neutrophils): inhibiting
- superoxide anion generation induced by FMLP (human neutrophils; human neutrophils): inhibiting
- insecticidal activity [10]: insecticidal activity

- tail bleeding time versus vehicle control (Tail-bleeding assay; 10 mg/kg): significantly increased
Structure (SMILES): COC(=O)[C@H](c1ccccc1Cl)N1CCc2sccc2C1 [clopidogrel, reference compound]
